US12378195B2, “Aminated psilocybin derivatives and methods of using” (Enveric Biosciences Canada Inc., priority 2021, dated 2025)

Tests used:
5-HT1A receptor = biological target: T1, 5-HT1A receptor (Homo sapiens, UniProt P08908); assay: cAMP-Glo luminescence assay in +5-HT1A cells (CHO-K1/5-HT1A/Gα15) with forskolin; format: cell-based; conditions: +5HT1A cell cultures, fixed (4 μM) forskolin, n=3; for % cAMP levels with decreasing ligand dosage, 5-HT1A activity: FIGS. 11L, 11M; for luminescence (cAMP) trend with decreasing ligand dosage, 5-HT1A modulation: FIGS. 11J, 11K
T1 construct: host or cells: CHO-K1 (stably expressing 5-HT1A and Gα15)
T1 sequence (P08908 1-422): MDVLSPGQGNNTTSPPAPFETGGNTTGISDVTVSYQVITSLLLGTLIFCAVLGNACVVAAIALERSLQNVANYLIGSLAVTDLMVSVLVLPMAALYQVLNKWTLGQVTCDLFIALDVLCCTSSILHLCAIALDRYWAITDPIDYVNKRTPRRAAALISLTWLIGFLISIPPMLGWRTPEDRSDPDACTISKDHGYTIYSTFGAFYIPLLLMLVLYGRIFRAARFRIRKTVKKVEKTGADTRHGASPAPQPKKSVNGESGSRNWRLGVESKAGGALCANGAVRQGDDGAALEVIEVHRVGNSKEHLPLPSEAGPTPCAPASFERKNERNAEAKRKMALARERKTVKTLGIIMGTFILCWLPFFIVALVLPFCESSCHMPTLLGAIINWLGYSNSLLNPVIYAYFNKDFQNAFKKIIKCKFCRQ
Excerpt: CHO-K1/Gα15 (GenScript, M00257) (−5-HT1A) and CHO-K1/5-HT1A/Gα15 (GenScript, M00330) (+5-HT1A) cells lines were used. Briefly, CHO-K1/Gα15 is a control cell line that constitutively expresses Gα15 which is a promiscuous Gq protein. This control cell line lacks any transgene encoding 5-HT1A receptors, but still responds to forskolin; thus, cAMP response to forskolin should be the same regardless of whether or not 5-HT1A agonists are present. Conversely, CHO-K1/5-HT1A/Gα15 cells stably express 5-HT1A receptor in the CHO-K1 host background. […] In +5-HT1A cells, Gα15 may be recruited in place of Gαi/o, which could theoretically dampen cAMP response (Rojas and Fiedler 2016, Front Cell Neurosci 10: 272). […] In contrast, tryptophan is not known to activate, or modulate in any way, 5-HT1A receptors, and was thus used as a negative control. Cells were maintained in complete growth media as recommended by supplier (GenScript) which is constituted as follows: Ham's F12 Nutrient mix (HAM's F12, GIBCO #11765-047) with 10% fetal bovine serum (FBS) (Thermo Scientific #12483020), 200 μg/ml zeocin (Thermo Scientific #R25005) and/or 100 μg/ml hygromycin (Thermo Scientific #10687010). The cells were cultured in a humidified incubator with 37° C. and 5% CO2. Cells maintenance was carried out as recommended by the cell supplier. Briefly, vials with cells were removed from the liquid nitrogen and thawed quickly in 37° C. water bath. Just before the cells were completely thawed the vial's outside was decontaminated by 70% ethanol spray. The cell suspension was then retrieved from the vial and added to warm (37° C.) complete growth media, and centrifuged at 1,000 rpm for 5 minutes. The supernatant was discarded, and the cell pellet was then resuspended in another 10 ml of complete growth media, and added to the 10 cm cell culture dish (Greiner Bio-One #664160). The media was changed every third day until the cells were about 90% confluent. The ˜90% confluent cells were then split 10:1 for maintenance or used for experiment.
(§1) As 5-HT1A activation inhibits cAMP formation, the ability of test molecules to modulate 5-HT1A response was measured via changes in the levels of cAMP produced due to application of 4 μM forskolin. The change in intracellular cAMP levels due to the treatment of novel molecules was measured using cAMP-Glo Assay kit (Promega #V1501). […] Reduced ATP caused reduced conversion of luciferin to oxyluciferin, conferring diminished luminescence as the result of 5-HT1A activation. Conversely, enhanced luminescence was expected in cases where 5-HT1A receptor modulation—imparted by a test molecule—caused downstream increases in ATP, thus imparting enhanced conversion of luciferin to oxyluciferin.

[1] = tested on: CHO-K1/Gα15 (−5-HT1A) cells; assay: cAMP-Glo assay in control −5-HT1A cells (CHO-K1/Gα15) with forskolin; format: cell-based; conditions: −5HT1A cell cultures; fixed (4 μM) forskolin; n=3; FIGS. 11L, 11M
Excerpt: CHO-K1/Gα15 (GenScript, M00257) (−5-HT1A) and CHO-K1/5-HT1A/Gα15 (GenScript, M00330) (+5-HT1A) cells lines were used. Briefly, CHO-K1/Gα15 is a control cell line that constitutively expresses Gα15 which is a promiscuous Gq protein. This control cell line lacks any transgene encoding 5-HT1A receptors, but still responds to forskolin; thus, cAMP response to forskolin should be the same regardless of whether or not 5-HT1A agonists are present. Conversely, CHO-K1/5-HT1A/Gα15 cells stably express 5-HT1A receptor in the CHO-K1 host background. […] In +5-HT1A cells, Gα15 may be recruited in place of Gαi/o, which could theoretically dampen cAMP response (Rojas and Fiedler 2016, Front Cell Neurosci 10: 272). […]
as §1

5-HT2A receptor = biological target: T2, 5-HT2A receptor (Homo sapiens, UniProt P28223); assay: [3H]ketanserin competition binding assay (Scintillation Proximity Assay); conditions: fixed (1 nM) [3H]ketanserin; membranes containing 5-HT2A; FIG. 11E
T2 construct: purchased PerkinElmer ES-313-M400UA
T2 sequence (P28223 whole entry): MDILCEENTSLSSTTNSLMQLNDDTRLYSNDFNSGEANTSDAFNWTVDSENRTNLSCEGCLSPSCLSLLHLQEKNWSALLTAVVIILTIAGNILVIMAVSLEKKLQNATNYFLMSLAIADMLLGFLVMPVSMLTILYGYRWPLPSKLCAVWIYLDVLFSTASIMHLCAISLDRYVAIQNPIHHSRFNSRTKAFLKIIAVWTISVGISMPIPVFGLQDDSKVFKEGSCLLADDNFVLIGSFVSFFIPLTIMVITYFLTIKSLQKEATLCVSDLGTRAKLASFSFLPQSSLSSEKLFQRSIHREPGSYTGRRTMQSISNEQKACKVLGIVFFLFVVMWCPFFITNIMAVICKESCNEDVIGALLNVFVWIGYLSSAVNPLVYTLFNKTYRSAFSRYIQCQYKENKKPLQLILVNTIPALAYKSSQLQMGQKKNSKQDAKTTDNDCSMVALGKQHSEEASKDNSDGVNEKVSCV
Excerpt: Evaluation of drug binding is an essential step to characterization of all drug-target interactions (Fang 2012, Exp Opin Drug Discov 7:969). The binding affinity of a drug to a target is traditionally viewed as an acceptable surrogate of its in vivo efficacy (Núnez et al., 2012, Drug Disc Today 17: 10). Competition assays, also called displacement or modulation binding assays, are a common approach to measure activity of a ligand at a target receptor (Flanagan 2016, Methods Cell Biol 132: 191). In these assays, standard radioligands acting either as agonists or antagonists are ascribed to specific receptors. […] After incubation, the samples were read on a MicroBeta 2 Microplate Counter (Perkin Elmer). […] Equilibrium binding constants for ketanserin (Kd) were determined from saturation binding curves using the ‘one-site saturation binding analysis’ method of GraphPad PRISM software (Version 9.2.0). […] Ki values were calculated from the competition displacement data using the competitive binding analysis from GraphPad PRISM software. […] Specific binding in counts per minute (cpm) was calculated by subtracting non-specific binding from total binding. Specific binding (pmol/mg) was calculated from pmol of [^3H]ketanserin bound per mg of protein in the assay. The Kd was calculated by fitting the data with the one-site binding model of PRISM software (version 9.2.0).

NCCc1c[nH]c2ccc(O)cc12 [serotonin]
% cAMP levels with decreasing ligand dosage, 5-HT1A activity (5-HT1A receptor): 5-HT1A binding activity
trend of increasing % cAMP levels with decreasing ligand dosage [1]: not observed

CN(C)CCc1c[nH]c2cccc(O)c12 [psilocin]
competition binding curve at the 5-HT2A receptor (5-HT2A receptor): binding

COc1c(N)ccc2[nH]cc(CCN)c12 [compound (IX)]
% cAMP levels with decreasing ligand dosage, 5-HT1A activity (5-HT1A receptor): 5-HT1A binding activity
trend of increasing % cAMP levels with decreasing ligand dosage [1]: not observed

N[C@@H](Cc1c[nH]c2ccccc12)C(=O)O [tryptophan]
competition binding curve at the 5-HT2A receptor (5-HT2A receptor): no binding
luminescence (cAMP) trend with decreasing ligand dosage, 5-HT1A modulation (5-HT1A receptor): lack of 5-HT1A modulation

CN(C)CCc1c[nH]c2ccccc12 [DMT]
luminescence (cAMP) trend with decreasing ligand dosage, 5-HT1A modulation (5-HT1A receptor): 5-HT1A activity
